According to the supplement of paper PMC10307832:

Experiments:
Assay in all cases: relative viability (nuclei count vs DMSO), 5 days (fraction); higher = more cells survive
[1] = system: LU99A
Summary of the method: (§1)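 For relative viability, nuclei counts in treated wells were divided by those in vehicle wells. Lung cancer cell lines had been pin-tool dosed in 1536-well plates the day after seeding and cultured for 5 days, then fixed and stained in one step (final 0.05% Triton X-100, 1% formaldehyde, 1 ug/ml Hoechst) and imaged at 4×. Doses were one drug alone or a fixed anchor-drug dose plus five library-drug doses (not always all listed) in √10 steps, and values are duplicate-plate medians.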

[2] = system: NCI-H1993
Summary of the method: as §1

[3] = system: NCI-H1755
Summary of the method: as §1

[4] = system: HCC-366
Summary of the method: as §1

[5] = system: LC-2-ad
Summary of the method: as §1

[6] = system: HCC-827
Summary of the method: as §1

[7] = system: HCC-78
Summary of the method: as §1

[8] = system: COR-L23
Summary of the method: as §1

[9] = system: RERF-LC-KJ
Summary of the method: as §1

[10] = system: COR-L 105
Summary of the method: as §1

[11] = system: 201T
Summary of the method: as §1

[12] = system: EKVX
Summary of the method: as §1

[13] = system: HCC-15
Summary of the method: as §1

[14] = system: NCI-H1944
Summary of the method: as §1

[15] = system: NCI-H1650
Summary of the method: as §1

[16] = system: LXF-289
Summary of the method: as §1

[17] = system: NCI-H1975
Summary of the method: as §1

[18] = system: SK-LU-1
Summary of the method: as §1

[19] = system: NCI-H3122
Summary of the method: as §1

[20] = system: HARA
Summary of the method: as §1

[21] = system: NCI-H1734
Summary of the method: as §1

[22] = system: BEN
Summary of the method: as §1

SMILES: O=c1[nH]c2ccccc2n1C1CCN(CCCC(c2ccc(F)cc2)c2ccc(F)cc2)CC1 [Pimozide] + CC(=O)c1c(C)c2cnc(Nc3ccc(N4CCNCC4)cn3)nc2n(C2CCCC2)c1=O [Palbociclib] (partner 0.5 µM)
- relative viability ([1]; first compound 0.08 µM): 0.407
- relative viability ([1]; first compound 0.8 µM): 0.388
- relative viability ([1]; first compound 2.53 µM): 0.421
- relative viability ([1]; first compound 8 µM): 0.41
- relative viability ([2]; first compound 0.08 µM): 0.616
- relative viability ([2]; first compound 0.253 µM): 0.58
- relative viability ([2]; first compound 0.8 µM): 0.653
- relative viability ([2]; first compound 2.53 µM): 0.556
- relative viability ([2]; first compound 8 µM): 0.558
- relative viability ([3]; first compound 0.08 µM): 0.448
- relative viability ([3]; first compound 0.253 µM): 0.337
- relative viability ([3]; first compound 0.8 µM): 0.447
- relative viability ([3]; first compound 2.53 µM): 0.416
- relative viability ([3]; first compound 8 µM): 0.46
- relative viability ([4]; first compound 0.08 µM): 0.38
- relative viability ([4]; first compound 0.253 µM): 0.404
- relative viability ([4]; first compound 0.8 µM): 0.345
- relative viability ([4]; first compound 2.53 µM): 0.379
- relative viability ([4]; first compound 8 µM): 0.357
- relative viability ([5]; first compound 0.08 µM): 0.517
- relative viability ([5]; first compound 0.253 µM): 0.474
- relative viability ([5]; first compound 0.8 µM): 0.475
- relative viability ([5]; first compound 2.53 µM): 0.472
- relative viability ([5]; first compound 8 µM): 0.482
- relative viability ([6]; first compound 0.253 µM): 0.449
- relative viability ([6]; first compound 0.8 µM): 0.459
- relative viability ([6]; first compound 2.53 µM): 0.484
- relative viability ([6]; first compound 8 µM): 0.514
- relative viability ([7]; first compound 0.08 µM): 0.514
- relative viability ([7]; first compound 0.8 µM): 0.431
- relative viability ([7]; first compound 2.53 µM): 0.421
- relative viability ([7]; first compound 8 µM): 0.524
- relative viability ([8]; first compound 0.08 µM): 0.291
- relative viability ([8]; first compound 0.253 µM): 0.346
- relative viability ([8]; first compound 0.8 µM): 0.293
- relative viability ([8]; first compound 2.53 µM): 0.267
- relative viability ([8]; first compound 8 µM): 0.307
- relative viability ([9]; first compound 0.08 µM): 1
- relative viability ([9]; first compound 0.253 µM): 0.972
- relative viability ([9]; first compound 0.8 µM): 0.987
- relative viability ([9]; first compound 2.53 µM): 0.778
- relative viability ([9]; first compound 8 µM): 0.851
- relative viability ([10]; first compound 0.08 µM): 0.378
- relative viability ([10]; first compound 0.253 µM): 0.399
- relative viability ([10]; first compound 0.8 µM): 0.409
- relative viability ([10]; first compound 2.53 µM): 0.426
- relative viability ([10]; first compound 8 µM): 0.416
- relative viability ([11]; first compound 0.08 µM): 0.363
- relative viability ([11]; first compound 0.253 µM): 0.356
- relative viability ([11]; first compound 0.8 µM): 0.337
- relative viability ([11]; first compound 2.53 µM): 0.314
- relative viability ([11]; first compound 8 µM): 0.342
- relative viability ([12]; first compound 0.253 µM): 0.4
- relative viability ([12]; first compound 0.8 µM): 0.343
- relative viability ([12]; first compound 2.53 µM): 0.387
- relative viability ([12]; first compound 8 µM): 0.37
- relative viability ([13]; first compound 0.08 µM): 0.747
- relative viability ([13]; first compound 0.253 µM): 0.641
- relative viability ([13]; first compound 0.8 µM): 0.673
- relative viability ([13]; first compound 2.53 µM): 0.652
- relative viability ([13]; first compound 8 µM): 0.653
- relative viability ([14]; first compound 0.08 µM): 0.333
- relative viability ([14]; first compound 2.53 µM): 0.253
- relative viability ([14]; first compound 8 µM): 0.334
- relative viability ([15]; first compound 0.08 µM): 0.287
- relative viability ([15]; first compound 0.253 µM): 0.378
- relative viability ([15]; first compound 0.8 µM): 0.265
- relative viability ([15]; first compound 2.53 µM): 0.352
- relative viability ([15]; first compound 8 µM): 0.271
- relative viability ([16]; first compound 0.08 µM): 0.588
- relative viability ([16]; first compound 0.253 µM): 0.607
- relative viability ([16]; first compound 0.8 µM): 0.571
- relative viability ([16]; first compound 2.53 µM): 0.574
- relative viability ([16]; first compound 8 µM): 0.586
- relative viability ([17]; first compound 0.08 µM): 0.402
- relative viability ([17]; first compound 0.253 µM): 0.515
- relative viability ([17]; first compound 0.8 µM): 0.619
- relative viability ([17]; first compound 2.53 µM): 0.593
- relative viability ([17]; first compound 8 µM): 0.494
- relative viability ([18]; first compound 0.08 µM): 0.384
- relative viability ([18]; first compound 0.253 µM): 0.533
- relative viability ([18]; first compound 0.8 µM): 0.404
- relative viability ([18]; first compound 2.53 µM): 0.377
- relative viability ([18]; first compound 8 µM): 0.348
- relative viability ([19]; first compound 0.08 µM): 0.175
- relative viability ([19]; first compound 0.253 µM): 0.176
- relative viability ([19]; first compound 0.8 µM): 0.174
- relative viability ([19]; first compound 2.53 µM): 0.163
- relative viability ([19]; first compound 8 µM): 0.185
- relative viability ([20]; first compound 0.08 µM): 0.278
- relative viability ([20]; first compound 0.253 µM): 0.263
- relative viability ([20]; first compound 0.8 µM): 0.22
- relative viability ([20]; first compound 2.53 µM): 0.255
- relative viability ([20]; first compound 8 µM): 0.178
- relative viability ([21]; first compound 0.08 µM): 0.316
- relative viability ([21]; first compound 0.253 µM): 0.262
- relative viability ([21]; first compound 0.8 µM): 0.372
- relative viability ([21]; first compound 2.53 µM): 0.347
- relative viability ([21]; first compound 8 µM): 0.328
- relative viability ([22]; first compound 0.08 µM): 0.442
- relative viability ([22]; first compound 0.253 µM): 0.472
- relative viability ([22]; first compound 0.8 µM): 0.451
- relative viability ([22]; first compound 2.53 µM): 0.457
- relative viability ([22]; first compound 8 µM): 0.494
